doi:10.1101/2024.01.03.573903v1 (biorxiv, 2024)

Molecular target: T1, ZIKV NS3 helicase (Zika virus, UniProt Q32ZE1)
T1 sequence (Q32ZE1 1673-2115 limits assumed): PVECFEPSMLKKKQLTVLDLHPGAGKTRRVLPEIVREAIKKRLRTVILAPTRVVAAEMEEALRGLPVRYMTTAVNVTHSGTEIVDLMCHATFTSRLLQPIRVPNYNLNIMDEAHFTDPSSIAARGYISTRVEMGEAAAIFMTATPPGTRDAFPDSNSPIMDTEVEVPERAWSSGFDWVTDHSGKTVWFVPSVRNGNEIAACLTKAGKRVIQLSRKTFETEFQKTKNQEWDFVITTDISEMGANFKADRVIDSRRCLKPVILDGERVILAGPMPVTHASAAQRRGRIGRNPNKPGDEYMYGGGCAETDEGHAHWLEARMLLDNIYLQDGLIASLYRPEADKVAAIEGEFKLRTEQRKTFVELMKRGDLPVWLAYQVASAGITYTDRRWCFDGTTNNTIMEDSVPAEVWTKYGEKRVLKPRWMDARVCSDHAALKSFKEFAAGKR
Assay: malachite green phosphate release NTPase assay
Type: biochemical

SMILES: COc1cc(/C=C/C(=O)CC(=O)/C=C/c2ccc(O)c(OC)c2)ccc1O [curcumin]
- IC50: 64.4 µM
